These results are taken from patent US5300629A, “Bactericidal and/or bacteriostatic peptides isolated from hemolymph of honeybees” (Plant Genetic Systems, N.V., priority 1987, dated 1994).

The structures appear in SMILES notation. Where a SMILES comes first, the peptide text is derived from it.

Format in all cases: cell-based
Test [1] has as its system Serratia liquefaciens DSM 30125. Kind of test: Inhibition zone assay. The conditions noted are these: I 10 ul, L 5 ug. More on the design: key: --: "-" means that no inhibition has been found.
For test [2], the system named is Pseudomonas syringae pv. syringae ATCC 19310. In words: Inhibition zone assay. Set-up: key: --: "-" means that no inhibition has been found.
The test system of test [3] is Salmonella typhimurium ATCC 23565. Kind of test: Inhibition zone assay. More on the design: key: --: "-" means that no inhibition has been found.
In test [4] the test system is Xanthomonas maltophilia JCM1977. In words: Inhibition zone assay. Set-up: key: --: "-" means that no inhibition has been found. The settings on record: Xanthomonas maltophilia JCM1977 (Tables 2 and 3).
For test [5], the system named is Staphylococcus aureus STA 1. Kind of test: Inhibition zone assay. More on the design: key: --: "-" means that no inhibition has been found. The conditions noted are these: I 10 ul.
Test [6] deals with Azospirillum brasilliense ATCC 29145. In words: Inhibition zone assay. Set-up: key: --: "-" means that no inhibition has been found.
The test system of test [7] is Lactobacillus acidophilus ATCC 4336. Kind of test: Inhibition zone assay. Set-up: key: --: "-" means that no inhibition has been found. The conditions noted are these: I 10 ul.
Test [8] relates to Flavobacterium devorans NRRL B-54. Kind of test: Inhibition zone assay. More on the design: key: --: "-" means that no inhibition has been found. The settings on record: I and B 10 ul, L 5 ug.
Test [9] deals with Bordetella bronchiseptica ATCC 19395. Kind of test: Inhibition zone assay. More on the design: key: --: "-" means that no inhibition has been found. The conditions noted are these: I and B 10 ul, L 5 ug.
For test [10], the system named is Haemophilus influenzae NCTC 7279. Kind of test: Inhibition zone assay. Set-up: key: --: "-" means that no inhibition has been found. The settings on record: I and B 10 ul.
Test [11] concerns Pseudomonas aeruginosa ATCC 7700. Kind of test: Inhibition zone assay. More on the design: key: --: "-" means that no inhibition has been found.
Test [12] deals with Listeria monocytogenes B5. In words: Inhibition zone assay. Set-up: key: --: "-" means that no inhibition has been found. The conditions noted are these: L 5 ug.
Test [13] concerns Xanthomonas campestris pv. oryzae IRN 235. Set-up: key: --: "-" means that no inhibition has been found.
The test system of test [14] is Enterobacter agglomerans ICPB 3423. Kind of test: Inhibition zone assay. Set-up: key: --: "-" means that no inhibition has been found.
For test [15], the system named is Enterobacter agglomerans Gilardi 1081. Kind of test: Inhibition zone assay. More on the design: key: --: "-" means that no inhibition has been found. The settings on record: I and B 10 ul, L 5 ug.
Test [16] concerns Bacillus subtilis NRRL B-237. In words: Inhibition zone assay. The settings on record: I and B 10 ul, L 5 ug.
The subject of test [17] is Salmonella enteritidis 83/34. Kind of test: Inhibition zone assay. More on the design: key: --: "-" means that no inhibition has been found. The settings on record: I and B 10 ul.

On to `CC[C@H](C)[C@H](NC(=O)[C@H](CCCCN)NC(=O)[C@@H]1CCCN1C(=O)[C@H](CC(N)=O)NC(=O)[C@H](Cc1ccccc1)NC(=O)[C@@H]1CCCN1C(=O)CNC(=O)[C@H](CCC(N)=O)NC(=O)CNC(=O)[C@@H]1CCCN1C(=O)[C@H](Cc1ccccc1)NC(=O)[C@@H](NC(=O)[C@@H]1CCCN1C(=O)[C@H](Cc1ccccc1)NC(=O)[C@@H]1CCCN1C(=O)[C@H](CCCNC(=N)N)NC(=O)[C@H](CCCNC(=N)N)NC(=O)CNC(=O)[C@@H]1CCCN1C(=O)[C@H](CCC(N)=O)NC(=O)[C@@H]1CCCN1C(=O)[C@@H](NC(=O)[C@H](CC(N)=O)NC(=O)[C@@H]1CCCN1C(=O)[C@H](CC(C)C)NC(=O)[C@@H]1CCCN1C(=O)[C@@H](NC(=O)[C@@H](N)Cc1ccc(O)cc1)C(C)C)C(C)C)[C@@H](C)O)C(=O)N[C@@H](CCCCN)C(=O)N[C@@H](Cc1c[nH]c2ccccc12)C(=O)N1CCC[C@H]1C(=O)N[C@@H](CCC(N)=O)C(=O)NCC(=O)N[C@@H](Cc1ccc(O)cc1)C(=O)O` [bee 9] (H-YVPLPNVPQPGRRPFPTFPGQGPFNPKIKWPQGY-OH), for which the “diameter of growth-inhibition zone” value in test [1], in test [2], in test [3], in test [4], in [5] and in [6] was “--” in each case. For the same compound, the “diameter of growth-inhibition zone” value in [7], in test [8], in test [9], in test [10], in test [11] and in [12] was “--” throughout. The “diameter of growth-inhibition zone” value is “--” in test [13]; “--” in [14]; “--” in test [15]; 4 mm in test [16]; “--” in test [17].
